Laboratory results from PubChem BioAssay AID330 (DTP/NCI, 2004).
Where “and” joins values, the source holds several entries; their conditions need not be identical. Equal entries are not always repeated. Inconclusive results and toxic doses are left out. Peptide text beside a SMILES is read from it. * marks the point of attachment. Cbz = O=C(OCc1ccccc1)*

Test system: P388 leukemia ip, CD2F1 mice, survival T/C
Test: NCI In Vivo Anticancer Drug Screen. Data for tumor model P388 Leukemia (intraperitoneal) in CD2F1 (CDF1) mice
Conditions: endpoint: median survival time, higher = longer survival
How it was run: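 Mice carrying the transplanted tumor received test compound or vehicle. Survival was recorded in each group, and the value is the treated-group measurement divided by that of the vehicle-treated control group.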

[1] = dose: 50.0 mg/kg/injection, schedule: Q01DX005 (ip), vehicle: Klucel (hydroxypropylcellulose) (HPC)
[2] = dose: 100.0 mg/kg/injection, schedule: Q01DX005 (ip), vehicle: Klucel (hydroxypropylcellulose) (HPC)
[3] = dose: 200.0 mg/kg/injection, schedule: Q01DX005 (ip), vehicle: Klucel (hydroxypropylcellulose) (HPC)
[4] = dose: 50.0 mg/kg/injection, schedule: Q01DX009 (ip), vehicle: saline
[5] = dose: 100.0 mg/kg/injection, schedule: Q01DX009 (ip), vehicle: saline
[6] = dose: 200.0 mg/kg/injection, schedule: Q01DX009 (ip), vehicle: saline
[7] = dose: 50.0 mg/kg/injection, schedule: Q01DX005 (ip), vehicle: saline with Tween-80
[8] = dose: 100.0 mg/kg/injection, schedule: Q01DX005 (ip), vehicle: saline with Tween-80
[9] = dose: 200.0 mg/kg/injection, schedule: Q01DX005 (ip), vehicle: saline with Tween-80
[10] = dose: 100.0 mg/kg/injection, schedule: Q01DX001 (ip), vehicle: Klucel (hydroxypropylcellulose) (HPC)
[11] = dose: 200.0 mg/kg/injection, schedule: Q01DX001 (ip), vehicle: Klucel (hydroxypropylcellulose) (HPC)
[12] = dose: 400.0 mg/kg/injection, schedule: Q01DX001 (ip), vehicle: Klucel (hydroxypropylcellulose) (HPC)
[13] = dose: 60.0 mg/kg/injection, schedule: Q01DX005 (ip), vehicle: saline with Tween-80
[14] = dose: 120.0 mg/kg/injection, schedule: Q01DX005 (ip), vehicle: saline with Tween-80
[15] = dose: 240.0 mg/kg/injection, schedule: Q01DX005 (ip), vehicle: saline with Tween-80
[16] = dose: 60.0 mg/kg/injection, schedule: Q01DX005 (ip), vehicle: Klucel (hydroxypropylcellulose) (HPC)
[17] = dose: 120.0 mg/kg/injection, schedule: Q01DX005 (ip), vehicle: Klucel (hydroxypropylcellulose) (HPC)
[18] = dose: 50.0 mg/kg/injection, schedule: Q01DX009 (ip), vehicle: saline with Tween-80
[19] = dose: 100.0 mg/kg/injection, schedule: Q01DX009 (ip), vehicle: saline with Tween-80
[20] = dose: 200.0 mg/kg/injection, schedule: Q01DX009 (ip), vehicle: saline with Tween-80

## C=C1CCCC2(C)C(OC(C)=O)C=C3C(C)(CCC3(O)C(C)C)CC12O (stereo not drawn)
dose: 0.5 mg/kg/injection, schedule: Q01DX009 (ip), vehicle: saline + alcohol
  T/C: 110 % of control
dose: 1.0 mg/kg/injection, schedule: Q01DX009 (ip), vehicle: saline + alcohol
  T/C: 108 % of control
dose: 2.0 mg/kg/injection, schedule: Q01DX009 (ip), vehicle: saline + alcohol
  T/C: 102 % of control

## NC(=O)c1ccc(N=Nc2c(O)c3ccccc3[nH]c2=O)cc1
dose: 50.0 mg/kg/injection, schedule: Q01DX005 (ip), vehicle: saline + Tween-80 + alcohol
  T/C: 105 % of control
dose: 100.0 mg/kg/injection, schedule: Q01DX005 (ip), vehicle: saline + Tween-80 + alcohol
  T/C: 93 % of control
dose: 200.0 mg/kg/injection, schedule: Q01DX005 (ip), vehicle: saline + Tween-80 + alcohol
  T/C: 89 % of control

## COc1nc(N)nc2c1ncn2C1CC(O)C(CO)O1 (stereo not drawn)
[1]
  T/C: 100 % of control
[2]
  T/C: 100 % of control
[3]
  T/C: 112 % of control

## CC(=O)NC(CS)C(=O)O (stereo not drawn)
[4]
  T/C: 111 % of control and 88 % of control
[5]
  T/C: 103 % of control and 104 % of control and 111 % of control
[6]
  T/C: 99 % of control (2×) and 109 % of control

## FC(F)(F)c1ccc(C(Nc2nncs2)Nc2nncs2)cc1
[7]
  T/C: 93 % of control
[8]
  T/C: 96 % of control
[9]
  T/C: 105 % of control

## O=C1Cc2ccccc2C2CC12 (stereo not drawn)
[10]
  T/C: 98 % of control
[11]
  T/C: 113 % of control
[12]
  T/C: 111 % of control

## O=C1N(c2ccccc2)C(=O)C2(N(c3ccccc3)CCN2c2ccccc2)N1c1ccccc1
dose: 100.0 mg/kg/injection, schedule: Q04DX002 (ip), vehicle: saline with Tween-80
  T/C: 88 % of control
dose: 200.0 mg/kg/injection, schedule: Q04DX002 (ip), vehicle: saline with Tween-80
  T/C: 89 % of control
dose: 400.0 mg/kg/injection, schedule: Q04DX002 (ip), vehicle: saline with Tween-80
  T/C: 88 % of control

## CS(=O)(=O)OCc1ccc(COS(C)(=O)=O)cc1
dose: 12.5 mg/kg/injection, schedule: Q04DX003 (ip), vehicle: Klucel (hydroxypropylcellulose) (HPC)
  T/C: 123 % of control

## CCN(CC)P1(=O)OC(c2ccccc2)=CCN1c1ccc(OC)cc1 (stereo not drawn)
[1]
  T/C: 102 % of control
[2]
  T/C: 110 % of control
[3]
  T/C: 103 % of control

## Cc1ccc(N=Nc2c(-c3ccccc3)nn(C(=S)S)c2-c2ccccc2)cc1
dose: 25.0 mg/kg/injection, schedule: Q04DX002 (ip), vehicle: Klucel (hydroxypropylcellulose) (HPC)
  T/C: 101 % of control
dose: 50.0 mg/kg/injection, schedule: Q04DX002 (ip), vehicle: Klucel (hydroxypropylcellulose) (HPC)
  T/C: 105 % of control
dose: 100.0 mg/kg/injection, schedule: Q04DX002 (ip), vehicle: Klucel (hydroxypropylcellulose) (HPC)
  T/C: 99 % of control
dose: 200.0 mg/kg/injection, schedule: Q04DX002 (ip), vehicle: Klucel (hydroxypropylcellulose) (HPC)
  T/C: 103 % of control

## COC(=O)C(CO)NC(=O)C(CO)NC(=O)OCc1ccccc1 (stereo not drawn) (Cbz-Ser-Ser-OMe; configuration not given here)
[1]
  T/C: 100 % of control
[2]
  T/C: 98 % of control
[3]
  T/C: 101 % of control

## Cc1ccc(-c2cc(C(=O)NN)c(C#N)c(=O)[nH]2)cc1
dose: 60.0 mg/kg/injection, schedule: Q01DX005 (ip), vehicle: suspension in saline
  T/C: 97 % of control
dose: 120.0 mg/kg/injection, schedule: Q01DX005 (ip), vehicle: suspension in saline
  T/C: 100 % of control
dose: 240.0 mg/kg/injection, schedule: Q01DX005 (ip), vehicle: suspension in saline
  T/C: 100 % of control

## COc1nc(NC2OCC(OC(C)=O)C(OC(C)=O)C2OC(C)=O)c(N=CC=Nc2c(NC3OCC(OC(C)=O)C(OC(C)=O)C3OC(C)=O)nc(OC)n(C)c2=O)c(=O)n1C (stereo not drawn)
[13]
  T/C: 92 % of control
[14]
  T/C: 91 % of control
[15]
  T/C: 91 % of control

## CCOC1CN(C(=O)ON)N1C(=O)ON (stereo not drawn)
[4]
  T/C: 109 % of control
[5]
  T/C: 107 % of control
[6]
  T/C: 89 % of control

## C[O+]=c1ccc2ccc(-c3ccccc3)sc-2c1
[16]
  T/C: 106 % of control
[17]
  T/C: 105 % of control

## Cc1ccc(-n2nc(C)c3c(N)nc(N)nc32)c(Cl)c1
dose: 100.0 mg/kg/injection, schedule: Q04DX003 (ip), vehicle: Klucel (hydroxypropylcellulose) (HPC)
  T/C: 101 % of control
dose: 200.0 mg/kg/injection, schedule: Q04DX003 (ip), vehicle: Klucel (hydroxypropylcellulose) (HPC)
  T/C: 101 % of control
dose: 400.0 mg/kg/injection, schedule: Q04DX003 (ip), vehicle: Klucel (hydroxypropylcellulose) (HPC)
  T/C: 103 % of control

## [CH3][Sn]([CH3])([Br])[Br].c1ccc(-c2nnc(-c3ccccn3)nc2-c2ccccc2)cc1
dose: 30.0 mg/kg/injection, schedule: Q01DX005 (ip), vehicle: Klucel (hydroxypropylcellulose) (HPC)
  T/C: 107 % of control
[16]
  T/C: 113 % of control and 95 % of control
[17]
  T/C: 100 % of control and 106 % of control

## CCOC(=O)c1ccccc1-n1nnc(C#N)c1N
[1]
  T/C: 105 % of control
[2]
  T/C: 115 % of control

## Nc1nnn(-c2ccccc2)n1
[10]
  T/C: 102 % of control
[11]
  T/C: 101 % of control
[12]
  T/C: 102 % of control

## CCC(C)c1cc(/C=C2/OC(=O)c3ccccc32)cc(C(C)CC)c1O (stereo not drawn)
dose: 100.0 mg/kg/injection, schedule: Q04DX002 (ip), vehicle: saline
  T/C: 100 % of control
dose: 200.0 mg/kg/injection, schedule: Q04DX002 (ip), vehicle: saline
  T/C: 99 % of control
dose: 400.0 mg/kg/injection, schedule: Q04DX002 (ip), vehicle: saline
  T/C: 93 % of control

## CCOCC1OCCCO1
dose: 60.0 mg/kg/injection, schedule: Q01DX005 (ip), vehicle: saline
  T/C: 104 % of control
dose: 120.0 mg/kg/injection, schedule: Q01DX005 (ip), vehicle: saline
  T/C: 103 % of control
dose: 240.0 mg/kg/injection, schedule: Q01DX005 (ip), vehicle: saline
  T/C: 103 % of control

## COc1ccc(CN2CCCN(Cc3ccc(OC)cc3)C2c2cc3ccccc3c3ccccc23)cc1
[7]
  T/C: 99 % of control
[8]
  T/C: 99 % of control
[9]
  T/C: 101 % of control

## N#Cc1c(N)nsc1N1CCOCC1
dose: 12.5 mg/kg/injection, schedule: Q01DX005 (ip), vehicle: saline with Tween-80
  T/C: 98 % of control
dose: 25.0 mg/kg/injection, schedule: Q01DX005 (ip), vehicle: saline with Tween-80
  T/C: 104 % of control
[7]
  T/C: 98 % of control

## CCCC(C)C1(CC)C(=O)N(CCCl)C(=O)N(CCCl)C1=O (stereo not drawn)
[18]
  T/C: 93 % of control
[19]
  T/C: 99 % of control
[20]
  T/C: 93 % of control

## CCNC(=O)NS(=O)(=O)c1ccc(Sc2ccc(Cl)cc2)nc1
[13]
  T/C: 102 % of control
[14]
  T/C: 105 % of control
[15]
  T/C: 95 % of control

## O=C1CCCC2CCC(=O)C12 (stereo not drawn)
dose: 100.0 mg/kg/injection, schedule: Q04DX003 (ip), vehicle: other
  T/C: 114 % of control
dose: 200.0 mg/kg/injection, schedule: Q04DX003 (ip), vehicle: other
  T/C: 97 % of control
dose: 400.0 mg/kg/injection, schedule: Q04DX003 (ip), vehicle: other
  T/C: 106 % of control

## [O-]/[N+](=C\c1ccccc1)CCO
[18]
  T/C: 97 % of control
[19]
  T/C: 101 % of control
[20]
  T/C: 106 % of control

## CC1(C)N=C(N)N=C(N)N1c1cccc(CCCCc2ccc(S(=O)(=O)F)cc2)c1
dose: 25.0 mg/kg/injection, schedule: Q04DX003 (ip), vehicle: saline
  T/C: 110 % of control

## COc1ccc(/C=C2\C=C3OCOC3=CC2=O)cc1
dose: 2.5 mg/kg/injection, schedule: Q01DX009 (ip), vehicle: saline with Tween-80
  T/C: 100 % of control
dose: 5.0 mg/kg/injection, schedule: Q01DX009 (ip), vehicle: saline with Tween-80
  T/C: 100 % of control
dose: 10.0 mg/kg/injection, schedule: Q01DX009 (ip), vehicle: saline with Tween-80
  T/C: 100 % of control

## CCOC(=O)C(c1ccccc1)C(NC(C)=O)(C(=O)OCC)C(=O)OCC (stereo not drawn)
[13]
  T/C: 102 % of control
[14]
  T/C: 102 % of control
[15]
  T/C: 105 % of control

## CCOC(=O)C/C(C)=C1/N=C(c2ccccc2)OC1=O
[13]
  T/C: 91 % of control
[14]
  T/C: 91 % of control
[15]
  T/C: 92 % of control
